Biological target: T1, full-length human BTK (Homo sapiens, UniProt Q06187)
T1 construct: 2.5× stocks of full-length human BTK (08-080) from CarnaBio USA, Inc; purchased CarnaBio USA, Inc., Natick, Mass; 08-080
Experiment: BTK IC50 Enzyme Assay (Assay A), microfluidic off-chip mobility shift kinase assay
Type: biochemical
Settings: kinKDR peptide substrate, 90 min at 27° C.
Protocol: BTK IC50 Enzyme Assay (Assay A)
The following describes a microfluidic, off-chip mobility shift kinase assay used to measure inherent potency of compounds against BTK enzyme.
2.5× stocks of full-length human BTK (08-080) from CarnaBio USA, Inc., Natick, Mass., 1.6×ATP and appropriate kinKDR peptide substrate (FITC-AHA-EEPLYWSFPAKKK10 NH2) were prepared in kinase reaction buffer consisting of 25 mM MgCl2, 0.015% Brij-35 (30%), 100 mM Hepes, pH 7.5, and 10 mM DTT.
5 uL of enzyme buffer and 7.5 uL of ATP/kinKDR peptide substrate mix were added to Matrix (#115304) 384-well, sterile, polypropylene plates (Thermo Fisher Scientific, 15 Hudson, N.H.) with 125 nL of serially diluted compounds prepared in 100% DMSO, and incubated for 90 min. at 27° C. Following the incubation period, reactions were stopped by adding 60 uL stop buffer consisting of 100 mM Hepes, pH 7.5, 0.015% Brij-35 (30%), 0.277% Coating Reagent #3 (Caliper Life Sciences, Mountain View, Calif.), 5% DMSO. Stopped reactions were monitored at −2 PSI, −3000 V/−700 V in a LabChip 3000 plate 20 reader from Caliper Life Sciences, a PerkinElmer Company (Hopkinton, Mass.), and the activity was measured by off-chip mobility shift assay measuring the charge/mass difference between substrate and product resulting from peptide phosphorilation. IC50 and efficacy were determined by plotting log [Inhibitor] vs. % Activity in GeneData Screener (Basel, Switzerland).

T1 sequence (Q06187 whole entry): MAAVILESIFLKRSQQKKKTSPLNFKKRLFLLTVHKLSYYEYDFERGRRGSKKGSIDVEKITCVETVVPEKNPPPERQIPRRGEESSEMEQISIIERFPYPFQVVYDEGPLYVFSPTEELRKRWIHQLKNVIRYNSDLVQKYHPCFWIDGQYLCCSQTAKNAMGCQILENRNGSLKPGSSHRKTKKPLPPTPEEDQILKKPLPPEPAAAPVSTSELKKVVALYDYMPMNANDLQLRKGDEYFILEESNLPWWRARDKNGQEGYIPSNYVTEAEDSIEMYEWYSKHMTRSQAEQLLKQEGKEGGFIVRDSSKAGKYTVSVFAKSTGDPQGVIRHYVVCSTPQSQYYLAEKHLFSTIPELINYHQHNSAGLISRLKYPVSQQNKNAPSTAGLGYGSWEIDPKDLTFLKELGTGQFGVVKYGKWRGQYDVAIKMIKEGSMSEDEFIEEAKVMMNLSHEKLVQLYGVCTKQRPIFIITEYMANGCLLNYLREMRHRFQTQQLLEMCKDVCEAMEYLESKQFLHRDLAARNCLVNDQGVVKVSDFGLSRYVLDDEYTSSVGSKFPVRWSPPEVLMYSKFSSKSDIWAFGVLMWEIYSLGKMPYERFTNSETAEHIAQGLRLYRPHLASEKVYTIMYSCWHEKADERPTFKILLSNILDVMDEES

Structure (SMILES) | IC50
CN(C)C/C=C/C(=O)N1CCCC(Cn2ccc3ncnc(Oc4ccc(Oc5ccccc5)cc4)c32)C1 (centres unmarked) [Compound 30, (E)-4-(dimethylamino)-1-(3-((4-(4-phenoxyphenoxy)-5H-pyrrolo[3,2-d]pyrimidin-5-yl)methyl)piperidin-1-yl)but-2-en-1-one] | < 100 nM
CC1=CC(C)=[N+]2C1=Cc1ccc(CCC(=O)NCCN3CCN(C/C=C/C(=O)N4CC(n5ccc6ncnc(Oc7ccc(Oc8ccccc8)cc7)c65)C4)CC3)n1[B-]2(F)F [Compound 32, (E)-5,5-difluoro-1,3-dimethyl-7-(3-oxo-3-((2-(4-(4-oxo-4-(3-(4-(4-phenoxyphenoxy)-5H-pyrrolo[3,2-d]pyrimidin-5-yl)azetidin-1-yl)but-2-en-1-yl)piperazin-1-yl)ethyl)amino)propyl)-5H-dipyrrolo[1,2-c:2′,1′-f][1,3,2]diazaborinin-4-ium-5-uide] | 100 to 1000 nM
CN(C)C/C=C/C(=O)N[C@H]1C[C@H](n2ccc3ncnc(Oc4ccc(Oc5ccccc5)cc4)c32)C1 [Compound 33, (E)-4-(dimethylamino)-N-(trans-3-(4-(4-phenoxyphenoxy)-5H-pyrrolo[3,2-d]pyrimidin-5-yl)cyclobutyl)but-2-enamide] | 100 to 1000 nM
C=CC(=O)N1CC[C@@H](n2ccc3ncnc(Oc4ccc(Oc5ccccc5)cc4)c32)C1 [Compound 34, (R)-1-(3-(4-(4-phenoxyphenoxy)-5H-pyrrolo[3,2-d]pyrimidin-5-yl)pyrrolidin-1-yl)prop-2-en-1-one] | 100 to 1000 nM
C=CC(=O)N1CC(n2ccc3ncnc(Oc4ccc(NC(=O)c5ccccc5)cc4)c32)C1 [Compound 35, N-(4-((5-(1-acryloylazetidin-3-yl)-5H-pyrrolo[3,2-d]pyrimidin-4-yl)oxy)phenyl)benzamide] | 100 to 1000 nM
CN(C)C/C=C/C(=O)N[C@H]1C[C@@H](n2ncc3ncnc(Oc4ccc(Oc5ccccc5)cc4)c32)C1 [Compound 36, (E)-4-(dimethylamino)-N-((1s,3s)-3-(7-(4-phenoxyphenoxy)-1H-pyrazolo[4,3-d]pyrimidin-1-yl)cyclobutyl)but-2-enamide] | 100 to 1000 nM
C=CC(=O)N1CCC(Cn2ccc3ncnc(Oc4ccc(Oc5ccccc5)cc4)c32)CC1 [Compound 37, 1-(4-((4-(4-phenoxyphenoxy)-5H-pyrrolo[3,2-d]pyrimidin-5-yl)methyl)piperidin-1-yl)prop-2-en-1-one] | 100 to 1000 nM
C/C=C/C(=O)N1CC(n2ccc3ncnc(Oc4ccc(Oc5ccccc5)cc4)c32)C1 [Compound 38, (E)-1-(3-(4-(4-phenoxyphenoxy)-5H-pyrrolo[3,2-d]pyrimidin-5-yl)azetidin-1-yl)but-2-en-1-one] | 100 to 1000 nM
C=CC(=O)N[C@H]1CC[C@H](n2ccc3ncnc(Oc4ccc(Oc5ccccc5)cc4)c32)CC1 [Compound 39, N-(trans-4-(4-(4-phenoxyphenoxy)-5H-pyrrolo[3,2-d]pyrimidin-5-yl)cyclohexyl)acrylamide] | 100 to 1000 nM
C=CC(=O)N1CCC(Cn2ccc3ncnc(-c4cccc(Oc5ccccc5)c4)c32)C1 (centres unmarked) [Compound 40, 1-(3-((4-(3-phenoxyphenyl)-5H-pyrrolo[3,2-d]pyrimidin-5-yl)methyl)pyrrolidin-1-yl)prop-2-en-1-one] | 100 to 1000 nM
CN(C)C/C=C/C(=O)N[C@H]1C[C@H](n2ncc3ncnc(Oc4ccc(Oc5ccccc5)cc4)c32)C1 [Compound 41, (E)-4-(dimethylamino)-N-((1r,3r)-3-(7-(4-phenoxyphenoxy)-1H-pyrazolo[4,3-d]pyrimidin-1-yl)cyclobutyl)but-2-enamide] | 100 to 1000 nM
C=CC(=O)NCCn1ccc2ncnc(Oc3ccc(Oc4ccccc4)cc3)c21 [Compound 42, N-(2-(4-(4-phenoxyphenoxy)-5H-pyrrolo[3,2-d]pyrimidin-5-yl)ethyl)acrylamide] | 1000 to 5000 nM
C=CC(=O)N1CC(n2ccc3ncnc(Oc4cnn(Cc5ccccc5)c4)c32)C1 [Compound 43, 1-(3-(4-((1-benzyl-1H-pyrazol-4-yl)oxy)-5H-pyrrolo[3,2-d]pyrimidin-5-yl)azetidin-1-yl)prop-2-en-1-one] | 1000 to 5000 nM
C=CC(=O)N1CCCC(Cn2ccc3ncnc(-c4cccc(Oc5ccccc5)c4)c32)C1 (centres unmarked) [Compound 44, 1-(3-((4-(3-phenoxyphenyl)-5H-pyrrolo[3,2-d]pyrimidin-5-yl)methyl)piperidin-1-yl)prop-2-en-1-one] | 1000 to 5000 nM
C=CC(=O)N1CCC(Cn2ccc3ncnc(-c4cccc(Oc5ccccc5)c4)c32)CC1 [Compound 45, 1-(4-((4-(3-phenoxyphenyl)-5H-pyrrolo[3,2-d]pyrimidin-5-yl)methyl)piperidin-1-yl)prop-2-en-1-one] | 1000 to 5000 nM
C=CC(=O)N1CCC(Cn2ccc3ncnc(-c4ccc(Oc5ccccc5)cc4)c32)C1 (centres unmarked) [Compound 46, 1-(3-((4-(4-phenoxyphenyl)-5H-pyrrolo[3,2-d]pyrimidin-5-yl)methyl)pyrrolidin-1-yl)prop-2-en-1-one] | 1000 to 5000 nM

Structure (SMILES) | IC50
C=CC(=O)N1CCC(Cn2ccc3ncnc(-c4ccc(Oc5ccccc5)cc4)c32)CC1 [Compound 47, 1-(4-((4-(4-phenoxyphenyl)-5H-pyrrolo[3,2-d]pyrimidin-5-yl)methyl)piperidin-1-yl)prop-2-en-1-one] | > 5000 nM
C=CC(=O)N1CCCC(Cn2ccc3ncnc(-c4ccc(Oc5ccccc5)cc4)c32)C1 (centres unmarked) [Compound 48, 1-(3-((4-(4-phenoxyphenyl)-5H-pyrrolo[3,2-d]pyrimidin-5-yl)methyl)piperidin-1-yl)prop-2-en-1-one] | > 5000 nM
CC(C)=CC(=O)N1CC(n2ccc3ncnc(Oc4ccc(Oc5ccccc5)cc4)c32)C1 [Compound 49, 3-methyl-1-(3-(4-(4-phenoxyphenoxy)-5H-pyrrolo[3,2-d]pyrimidin-5-yl)azetidin-1-yl)but-2-en-1-one] | > 5000 nM
C=CC(=O)N1CCC(n2ccc3ncnc(-c4cccc(Oc5ccccc5)c4)c32)CC1 [Compound 50, 1-(4-(4-(3-phenoxyphenyl)-5H-pyrrolo[3,2-d]pyrimidin-5-yl)piperidin-1-yl)prop-2-en-1-one] | > 5000 nM
C=C(C)C(=O)N1CC(n2ccc3ncnc(Oc4ccc(Oc5ccccc5)cc4)c32)C1 [Compound 51, 2-methyl-1-(3-(4-(4-phenoxyphenoxy)-5H-pyrrolo[3,2-d]pyrimidin-5-yl)azetidin-1-yl)prop-2-en-1-one] | > 5000 nM
C=CC(=O)N1CC(n2ccc3ncc(-c4cnn(Cc5ccccc5)c4)nc32)C1 [Compound 52, 1-(3-(3-(1-benzyl-1H-pyrazol-4-yl)-5H-pyrrolo[2,3-b]pyrazin-5-yl)azetidin-1-yl)prop-2-en-1-one] | 100 to 1000 nM
CCC/C=C(\C#N)C(=O)N1CCC(n2ccc3ncnc(Oc4ccc(Oc5ccccc5)cc4)c32)CC1 [Compound 55, (E)-2-(4-(4-(4-phenoxyphenoxy)-5H-pyrrolo[3,2-d]pyrimidin-5-yl)piperidine-1-carbonyl)hex-2-enenitrile] | 1000 to 5000 nM
N#CN1CCC(n2ccc3ncnc(Oc4ccc(Oc5ccccc5)cc4)c32)CC1 [Compound 56, 4-(4-(4-phenoxyphenoxy)-5H-pyrrolo[3,2-d]pyrimidin-5-yl)piperidine-1-carbonitrile] | 1000 to 5000 nM
N#CNC(=O)N1CCC(n2ccc3ncnc(Oc4ccc(Oc5ccccc5)cc4)c32)CC1 [Compound 57, N-cyano-4-(4-(4-phenoxyphenoxy)-5H-pyrrolo[3,2-d]pyrimidin-5-yl)piperidine-1-carboxamide] | 100 to 1000 nM
N#CN1CCC(Cn2ccc3ncnc(Oc4ccc(Oc5ccccc5)cc4)c32)C1 (centres unmarked) [Compound 58, 3-[[4-(4-phenoxyphenoxy)-5H-pyrrolo[3,2-d]pyrimidin-5-yl]methyl]pyrrolidine-1-carbonitrile] | 1000 to 5000 nM
N#CN1CCC(Cn2ccc3ncnc(Oc4ccc(Oc5ccccc5)cc4)c32)CC1 [Compound 59, 4-[[4-(4-phenoxyphenoxy)-5H-pyrrolo[3,2-d]pyrimidin-5-yl]methyl]piperidine-1-carbonitrile] | > 5000 nM
N#CN1CCCC1Cn1ccc2ncnc(Oc3ccc(Oc4ccccc4)cc3)c21 (centres unmarked) [Compound 61, 2-[[4-(4-phenoxyphenoxy)-5H-pyrrolo[3,2-d]pyrimidin-5-yl]methyl]pyrrolidine-1-carbonitrile] | 1000 to 5000 nM
N#CN1CCCCC1Cn1ccc2ncnc(Oc3ccc(Oc4ccccc4)cc3)c21 (centres unmarked) [Compound 62, 2-[[4-(4-phenoxyphenoxy)-5H-pyrrolo[3,2-d]pyrimidin-5-yl]methyl]piperidine-1-carbonitrile] | 1000 to 5000 nM
N#CN1CCCC(Cn2ccc3ncnc(Oc4ccc(Oc5ccccc5)cc4)c32)C1 (centres unmarked) [Compound 63, 3-[[4-(4-phenoxyphenoxy)-5H-pyrrolo[3,2-d]pyrimidin-5-yl]methyl]piperidine-1-carbonitrile] | > 5000 nM
N#CN1CCCC(n2ccc3ncnc(Oc4ccc(Oc5ccccc5)cc4)c32)C1 (centres unmarked) [Compound 64, 3-[4-(4-phenoxyphenoxy)-5H-pyrrolo[3,2-d]pyrimidin-5-yl]piperidine-1-carbonitrile] | 100 to 1000 nM
N#CN1CCC1Cn1ccc2ncnc(Oc3ccc(Oc4ccccc4)cc3)c21 (centres unmarked) [Compound 65, 2-[[4-(4-phenoxyphenoxy)-5H-pyrrolo[3,2-d]pyrimidin-5-yl]methyl]azetidine-1-carbonitrile] | 1000 to 5000 nM
